Laboratory results taken from US20040121954A1, “Poly(dipeptide) as a drug carrier” (priority 1999, published 2004).

Test system: PC3 (prostate); KB (nasopharyngeal); MDA MB 231 (breast)
Test: In vitro cell culture assay (MTT), cell inhibition in three human tumor cell lines
Conditions: 72 hours

In the case of `CC(=O)O[C@H]1C(=O)[C@@]2(C)[C@H]([C@H](OC(=O)c3ccccc3)[C@]3(O)C[C@H](OC(=O)[C@H](O)[C@@H](NC(=O)c4ccccc4)c4ccccc4)C(C)=C1C3(C)C)[C@]1(OC(C)=O)CO[C@@H]1C[C@@H]2O` [paclitaxel], the “cell inhibition at lower concentrations” value is reported as “more pronounced”.
